Reference: patent US4113946A, “Δ^2,3 -1,4-Morpholine-2-carboxylic acid derivatives as antibacterial agents” (Bristol-Myers Company, priority 1977, dated 1978)
In brackets after ≈: the same amount, converted by molar mass. Counter-ions that a name gives are not always drawn. Like-named read-outs stand apart in the source and are kept apart here.

Experiments:
Type in all cases: cell-based
E. coli A9675 = test: M.I.C. by tube dilution, E. coli A9675; details: Escherichia coli
K. pneumoniae A15130 = test: M.I.C. by tube dilution, K. pneumoniae A15130; details: Klebsiella pneumoniae
Sal. enteritidis A9531 = test: M.I.C. by tube dilution, Sal. enteritidis A9531; details: Salmonella enterica, ENTERITIDIS
Pr. mirabilis A9900 = test: M.I.C. by tube dilution, Pr. mirabilis A9900; details: Proteus mirabilis
Ser. marcescens A20019 = test: M.I.C. by tube dilution, Ser. marcescens A20019; details: Serratia marcescens
D. pneumoniae A9585 = test: M.I.C. by tube dilution, D. pneumoniae A9585; details: Streptococcus pneumoniae, A9585
S. aureus BX1633-2 A9606 = test: M.I.C. by tube dilution, S. aureus BX1633-2 A9606; details: Staphylococcus aureus, overnight 37° C.
[1] = tested on: S. aureus meth.-resist; A15097; test: M.I.C. by tube dilution, S. aureus meth.-resist A15097; details: Staphylococcus aureus, at 10^-3 dil'n, overnight 37° C.
K. pneumoniae A9977 = test: M.I.C. by tube dilution, K. pneumoniae A9977; details: Klebsiella pneumoniae
Ps. aeruginosa A9843A = test: microbe, parasite or virus in culture; details: Pseudomonas aeruginosa
E. coli Juhl A15119 = test: M.I.C. by tube dilution, E. coli Juhl A15119; details: Escherichia coli, JUHLA15119
S. aureus Smith A9537 = test: M.I.C. by tube dilution, S. aureus Smith A9537; details: Staphylococcus aureus, at 10^-4 dilution, overnight 37° C.
Pr. morganii A15153 = test: M.I.C. by tube dilution, Pr. morganii A15153; details: Morganella morganii
Str. pyogenes A9604 = test: M.I.C. by tube dilution, Str. pyogenes A9604; details: Streptococcus pyogenes
Ent. cloacae A9657 = test: M.I.C. by tube dilution, Ent. cloacae A9657; details: Enterobacter cloacae
Ent. cloacae A9659 = test: M.I.C. by tube dilution, Ent. cloacae A9659; details: Enterobacter cloacae, A9659, overnight 37° C.
Ent. cloacae A9656 = test: M.I.C. by tube dilution, Ent. cloacae A9656; details: Enterobacter cloacae
[2] = at 10^-4 dilution, overnight 37° C., read-out: M.I.C.
[3] = +5% serum, 50% Nutrient Broth - 45% Antibiotic Assay Broth, overnight 37° C., read-out: M.I.C.
[4] = overnight 37° C., read-out: M.I.C.

Compound | MIC (E. coli A9675) [µg/mL] | MIC (K. pneumoniae A15130) [µg/mL] | MIC (Sal. enteritidis A9531) [µg/mL] | MIC (Ser. marcescens A20019) [µg/mL] | MIC (D. pneumoniae A9585; [3]) [µg/mL] | MIC (S. aureus BX1633-2 A9606; BX16332A9606, at 10^-2 dil'n) [µg/mL] | MIC [1] [µg/mL] | MIC (K. pneumoniae A9977) [µg/mL] | MIC (Ps. aeruginosa A9843A) [µg/mL] | MIC (S. aureus Smith A9537; SMITHA9537, +50% serum) [µg/mL] | MIC (S. aureus Smith A9537; SMITHA9537, read-out: M.I.C.) [µg/mL] | MIC (Pr. morganii A15153) [µg/mL] | MIC (Str. pyogenes A9604; [3]) [µg/mL] | MIC (E. coli A9675; [2]) [µg/mL] | MIC (Pr. mirabilis A9900) [µg/mL] | MIC (Ser. marcescens A20019; [2]) [µg/mL] | MIC (S. aureus BX1633-2 A9606; BX16332A9606, at 10^-3 dil'n) [µg/mL] | MIC (Pr. morganii A15153; [2]) [µg/mL] | MIC (Ent. cloacae A9657; A9657) [µg/mL] | MIC (E. coli Juhl A15119) [µg/mL] | further results
O=C(COc1ccccc1)N[C@@H]1C(=O)N2C(C(=O)O)=COC[C@H]12 (relative stereo) [BC-L2, potassium 7 β-phenoxyacetamido-Δ^3 -O-2-isocephem-4-carboxylate] | > 125 | > 125 | 16 | > 125 | 0.6 | > 125 | > 125 | 32 | > 125 | 1 | 1.3 | > 125 | 0.6 | – | – | – | – | – | – | – | MIC (Pr. mirabilis A9900; [2]): 63 µg/mL; MIC (S. aureus BX1633-2 A9606; BX16332A9606, at 10^-3 dil'n, read-out: M.I.C.): 2.5 µg/mL; MIC (E. coli Juhl A15119; [2]): 63 µg/mL
CC1=C(C(=O)O)N2C(=O)[C@@H](NC(=O)COc3ccccc3)[C@H]2CO1 (relative stereo) [BC-L8, 7β-phenoxyacetamido-3-methyl-O-2-isocephem-4-carboxylic acid] | – | – | 8 (≈ 24.1 µM) | – | 0.5 (≈ 1.5 µM) | 32 (≈ 96.3 µM) | 32 (≈ 96.3 µM) | 32 (≈ 96.3 µM) | 500 (≈ 1500 µM) | 2 (≈ 6.02 µM) | 0.5 (≈ 1.5 µM) | – | 0.5 (≈ 1.5 µM) | 250 (≈ 752 µM) | 16 (≈ 48.1 µM) | 500 (≈ 1500 µM) | 2 (≈ 6.02 µM) | 500 (≈ 1500 µM) | – | – | MIC (K. pneumoniae A15130; [2]): 500 µg/mL (≈ 1500 µM); MIC (Ent. cloacae A9657; A9657, overnight 37° C., read-out: M.I.C.): 63 µg/mL (≈ 190 µM); MIC (Ent. cloacae A9659; read-out: M.I.C.): 500 µg/mL (≈ 1500 µM); MIC (E. coli Juhl A15119; [2]): 63 µg/mL (≈ 190 µM); MIC (Ent. cloacae A9656; [4]): 500 µg/mL (≈ 1500 µM)
COC(=O)CC1=C(C(=O)O)N2C(=O)[C@@H](NC(=O)COc3ccccc3)[C@H]2CO1 (relative stereo) [BC-L33, 7β-Phenoxyacetamido-3-carbomethoxymethylene-Δ^3 -O-2-isocephem-4-carboxylic acid] | > 125 | > 125 | 8 (≈ 20.5 µM) | > 125 | 0.06 (≈ 0.154 µM) | > 125 | > 125 | – | > 125 | 1 (≈ 2.56 µM) | 0.25 (≈ 0.64 µM) | > 125 | 0.06 (≈ 0.154 µM) | – | 32 (≈ 82 µM) | – | 16 (≈ 41 µM) | – | > 125 | 125 (≈ 320 µM) | MIC (Ent. cloacae A9659): > 125 µg/mL; MIC (K. pneumoniae A9977; [2]): 63 µg/mL (≈ 161 µM); MIC (Ent. cloacae A9656): > 125 µg/mL
N[C@@H](C(=O)N[C@@H]1C(=O)N2C(C(=O)O)=COC[C@H]12)c1ccccc1 [BC-L6, 7β-(D-α-aminophenylacetamido)-Δ^3 -O-2-isocephem-4-carboxylic acid] | – | 125 (≈ 394 µM) | 32 (≈ 101 µM) | – | – | – | – | – | > 500 | – | – | – | – | 250 (≈ 788 µM) | 125 (≈ 394 µM) | > 500 | 125 (≈ 394 µM) | > 500 | – | 125 (≈ 394 µM) | MIC (D. pneumoniae A9585): 16 µg/mL (≈ 50.4 µM); MIC (S. aureus BX1633-2 A9606; BX16332A9606, at 10^-2 dil'n, read-out: M.I.C.): 500 µg/mL (≈ 1580 µM); MIC ([1]; read-out: M.I.C.): > 500 µg/mL; MIC (K. pneumoniae A9977; [2]): 63 µg/mL (≈ 199 µM); MIC (S. aureus Smith A9537; SMITHA9537, +50% serum, read-out: M.I.C.): 250 µg/mL (≈ 788 µM); MIC (S. aureus Smith A9537; SMITHA9537): 32 µg/mL (≈ 101 µM); MIC (Str. pyogenes A9604): 16 µg/mL (≈ 50.4 µM)
CC1=C(C(=O)O)N2C(=O)[C@@H](NC(=O)[C@H](N)c3ccccc3)[C@H]2CO1 [BC-L9, 7β-(D-α-aminophenylacetamido)-3-methyl-Δ^3 -O-2-isocephem-4-carboxylic acid hydrochloride] | – | – | 16 | – | 0.5 | 32 | 32 | 16 | > 500 | 16 | – | – | 0.5 | 63 | – | 500 | 8 | 250 | 32 | 32 | MIC (K. pneumoniae A15130; [2]): 63 µg/mL; MIC (Ent. cloacae A9659): 125 µg/mL; MIC (Pr. mirabilis A9900; [2]): 63 µg/mL; MIC (S. aureus Smith A9537; SMITHA9537): 2 µg/mL; MIC (Ent. cloacae A9656; [4]): 500 µg/mL
O=C(COc1ccccc1)NC1C(=O)N2C(C(=O)O)=C(Cc3ccccc3)OCC12 (stereo not drawn) [BC-L17, 7β-phenoxyacetamido-3-benzyl-Δ^3 -O-2-isocephem-4-carboxylic acid] | > 125 | > 125 | 32 (≈ 78.4 µM) | > 125 | 0.25 (≈ 0.612 µM) | > 125 | 125 (≈ 306 µM) | > 125 | > 125 | 1 (≈ 2.45 µM) | 0.25 (≈ 0.612 µM) | > 125 | 0.25 (≈ 0.612 µM) | – | > 125 | – | 8 (≈ 19.6 µM) | – | > 125 | > 125 | MIC (Ent. cloacae A9659): > 125 µg/mL; MIC (Ent. cloacae A9656): > 125 µg/mL
